{"source": "patent US5512573A", "about": "“Use of phthaloylhydrazide derivatives as anti-hypoxic and defensive agents” (priority 1993, dated 1996)", "key": {"[1]": {"assay": "physchem"}, "[2]": {"system": "transplant rejection", "assay": "Skin transplant from another animal (description)", "format": "in vivo", "settings": "100 to 200 mg/kg", "excerpt": "Treatment started on the second day following a skin transplant from another animal and continued for 45 to 50 days."}, "[3]": {"system": "skin transplant rejection in chinchillas", "settings": "intravenous, p<0.01", "protocol": "The experiments involved 30 chinchillas from which a strip of skin was removed measuring 2×2 cm. The resulting lesion was covered by an outside transplant. The animals were divided into three groups.\nThe first group was treated with traditional therapy (prednisolone and cyclosporine); the second group was given 5aminophthaloylhydrazide daily in a dose of 150 mg/kg; the third group received a combined treatment.\nTo assess the efficacy of the drug, the period before the rejection was measured and morphological studies were conducted."}, "[4]": {"system": "high-level hypoxia in male mice", "protocol": "Experiments to test the resistance of the animals to high-level hypoxia were performed on 120 male mice weighing 18 to 20 g, and having reached sexual maturity.\nFive minutes before the experiment, the animals were given the following doses intramuscularly:\nthe first group (control group), 0.1 ml of physiological solution;\nthe second group (test group), a 20% oil solution in a dose of 30 mg/kg;\nthe third group, 5-aminophthaloylhydrazide in a dose of 30 mg/kg;\nthe fourth group, 5-aminophthaloylhydrazide in a dose of 60 mg/kg;\nthe fifth group, 5-aminophthaloylhydrazide in a dose of 80 mg/kg;\nthe sixth group, 5-aminophthaloylhydrazide in a dose of 150 mg/kg;\nthe seventh group, the drug in a dose of 200 mg/kg.\nThe period of tolerance to hypoxia was determined by raising the animals to an altitude of 10,400 meters at the speed of 100 meters per second."}, "[5]": {"system": "S. typhi TA 100, TA 102, and TA 97", "assay": "Mutagenicity, Ames' bacterial testing method", "settings": "0.01 and 2 mg/ml; rat liver microsomes", "protocol": "Mutagenicity was measured by means of Ames' bacterial testing method. The tests were performed with strains of S. typhi TA 100, TA 102, and TA 97. The microsome activator method was used whereby rat liver was induced with methylcolanthrene."}, "[6]": {"system": "psoriasis patients"}, "[7]": {"assay": "physchem", "settings": "octanol/water, pH 7.4"}}, "note": "Read-outs that look alike come from different tables or passages of the source.", "data": [{"compound": "Nc1cccc2c(=O)[nH][nH]c(=O)c12", "note": "[5-aminophthaloylhydrazide, 5-amino-2,3-dihydrophthalazine-1,2 dione]", "values": [{"measurement": "solubility", "setting": "[1]; pH 6.5", "value": 2, "unit": "mM"}, {"measurement": "solubility", "setting": "[1]; pH 7.4", "value": 12, "unit": "mM"}, {"measurement": "effectiveness vs hormonal drugs (corticosteroids)", "setting": "[2]", "value": "exceeds the hormonal drugs with long-term action known thus far (corticosteroids)"}, {"measurement": "rejection process vs traditional therapy", "setting": "[3]", "value": "slowed the rejection process down considerably"}, {"measurement": "therapeutic effectiveness vs Dibunolo", "setting": "[4]; 30 mg/kg", "value": "less therapeutically effective than the known antioxidant Dibunolo"}, {"measurement": "therapeutic effectiveness vs Dibunolo", "setting": "[4]; 100 mg, p<0.001", "value": "exceeded that of Dibunolo in a reliable manner"}, {"measurement": "dose with the greatest therapeutic effect", "setting": "[4]; intramuscular", "value": 80, "unit": "mg/kg"}, {"measurement": "extension of life under high-level hypoxia", "setting": "[4]; intramuscular, all doses", "value": "extended life under conditions of high-level hypoxia in all cases"}, {"measurement": "therapeutic effect on last increase in dose", "setting": "[4]; last increase in administered amount", "value": "did not increase the therapeutic effect achieved"}, {"measurement": "inhibitory or mutagenic activity", "setting": "[5]", "value": "does not posses inhibitory or mutagenic activity"}, {"measurement": "clinical picture of psoriasis", "setting": "[6]; 12 to 20 mg/kg daily", "value": "the itching disappeared, the temperature went down and the surface area of the affected zone shrunk"}, {"measurement": "epithelization of the pustules", "setting": "[6]; drug plus topical 4% solution in 10% DMSO", "value": "epithelization of the pustules occurred"}, {"measurement": "logD", "setting": "[7]", "value": -0.699}]}]}
